In US20220354957A1, “PEPTIDES TARGETING MACROPHAGES, AND CONJUGATES, COMPOSITIONS, AND USES THEREOF” (Twinpig Biolab, Inc., priority 2021, published 2022):
Where no end group is shown, it is not given here.

Key:
[1] = tested on: THP-1-derived M2 macrophages; test: Cytotoxicity assay (CCK-8 cell viability); assay type: cell-based, human; details: 0.05-20 μM, 24 h
Method: (§1) THP-1 cells were differentiated into macrophages by 24 h incubation with 100 nM PMA and polarized in M2 macrophages by incubation with 20 ng/ml of IL-4 and 20 ng/ml of IL-13 for 72 h. Polarized cells were treated with increasing concentrations of TAMpep and fragments of TAMpep (0.05-20 μM) for 24 h. Cell viability was analyzed using the CCK-8 assay: CCK-8 reagent (Enzo Life Sciences) was added to each well; incubation was continued for 2 hours, and absorbance was measured at 450 nm with a microplate reader (Molecular Devices).

M2 macrophages = test: Affinity by immunofluorescence microscopy; assay type: cell-based, human
[2] = tested on: THP-1-derived M2 macrophages; test: Affinity test of FITC-conjugated peptides by flow cytometry; assay type: cell-based, human
Method: THP-1 monocytes were differentiated into macrophages by 24 h incubation with 100 nM phorbol 12-myristate 13-acetate (PMA, Sigma) followed by 24 h incubation in RPMI medium (Invitrogen). Macrophages were polarized in M1 macrophages (M1) by incubation with 20 ng/ml of IFN-γ (Prospec) and 100 ng/ml of LPS (Sigma). Macrophage M2 polarization(M2) was obtained by incubation with 20 ng/ml of interleukin (IL) 4 (Prospec) and 20 ng/ml of interleukin 13 (Prospec). M2-like tumor-associated macrophages were polarized by incubation with 20% conditioned medium of PC3 cells.
THP-1 cells were differentiated into macrophages by a 24 h incubation with 100 nM PMA and polarized in M2 macrophages by incubation with 20 ng/ml of IL-4 and 20 ng/ml of IL-13 for 72 h. Polarized cells were treated with 50 nM TAMpep and fragments of TAMpep or Mpep and alanine library of Mpep conjugated with FITC for 1 h. To test change of macrophage population in melanoma tissue, the single cells were isolated from tumor tissue through a 40 μm nylon mesh strainer after dissociation by DNase I (1 U/mL) and collagenase D (1 mg/ml). Cells were detected on BD FACSCalibur and BD FACSCantoII instruments and analyzed by FlowJo software.

TRAMP-C2 cells = test: Mouse model of prostate cancer (subcutaneous TRAMP-C2); assay type: in vivo; details: TRAMP-C2 prostate cancer model
Description: (§2) BALB/c and C57BL/6 (B6) wild-type mice were purchased from DBL. For the subcutaneous tumor model of melanoma and prostate cancer, CT26 (3×10^5 cells/mouse), B16F10 (1×10^6 cells/mouse) and TRAMP-C2 cells (1×10^6 cells/mouse) were mixed with Matrigel matrix (Corning) and inoculated subcutaneously into the right flank of the mice, and 4T1 (1×10^5 cells/mouse) cells mixed with Matrigel matrix and inoculated into a 4th mammary fat pad of the mice. TAMpepK, and MpepK peptides (200 nmol/kg) were injected intraperitoneally every 3 days, beginning at day 7 after tumor inoculation, and tumor volume was measured by electronic caliper. All tumor tissues were harvested after the end of the study and tumor weight was measured by an electronic balance.
Cells were harvested and lysed in PRO-PREP protein extraction solution (iNtRON, Bio Inc, Sungnam, Korea). Protein concentrations were measured with a Bradford Protein Assay Reagent kit (Bio-Rad, Richmond, CA, USA). Proteins were fractionated by 10% SDS-polyacrylamide gels electrophoresis (PAGE), and transferred onto polyvinylidene difluoride (PVDF) membranes. These were incubated with anti-arginase 1, anti-CD206, anti-caspase 3, anti-E-cadherin, anti-fibronectin, anti-PCNA, anti-TGF-β, anti-MMP9, and anti-β-actin Ab as primary antibodies. Goat anti-rabbit horseradish peroxidase-conjugated IgG or goat anti-mouse horseradish peroxidase-conjugated IgG (Abcam, Cambridge, Mass., USA) served as secondary antibodies. Protein bands were detected with a chemiluminescence reagent kit (SurModics).

[3] = tested on: murine melanoma cells (B16F10 cell line); test: Mouse model of melanoma (subcutaneous B16F10); assay type: in vivo; details: B16F10 melanoma model, vs PBS group
Description: as §2

[4] = Cytotoxicity in human melanoma cells; assay type: cell-based; details: Sk-Mel-28 cells
[5] = Cytotoxicity assay (CCK-8 cell viability); assay type: cell-based, human; details: THP-1-derived M2 macrophages, CCK-8
Method: as §1

mouse RBC = test: Hemolytic activity assay; assay type: cell-based; details: 0.1-50 μM, 37° C., 1 h, read-out: hemolysis IC50
Method: Mouse blood samples were collected in tubes containing heparin as an anticoagulant and stored at 4 ° C. before use. Whole blood sample were centrifuged at 1,500×g for 5 min and the resulting plasma fraction was removed from the samples. The pellets were washed with an equal volume of saline, mixing by inversion. The centrifuging and washing steps were repeated 5 times. Red blood cells were counted by a hemocytometer and adjusted to […]. Red blood cells were then incubated at 37° C. for 1 h in 1% Triton X-100 (positive control), in PBS (blank), or with increasing concentrations of TAMpep and Mpep (0.1-50 μM) were evaluated. The samples were then centrifuged at 10,000 g for 5 min, the supernatant was separated from the pellet, and its absorbance measured at 570 nm. The relative optical density compared to that of the suspension treated with 1% Triton X-100 was defined as the percentage of hemolysis.

## CC[C@H](C)[C@H](NC(=O)[C@H](CC(C)C)NC(=O)[C@H](C)NC(=O)[C@@H]1CCCN1C(=O)[C@H](CC(C)C)NC(=O)CNC(=O)[C@@H](NC(=O)[C@@H](NC(=O)[C@H](CC(C)C)NC(=O)[C@@H](NC(C)=O)C(C)C)[C@@H](C)O)[C@@H](C)O)C(=O)N[C@@H](CO)C(=O)N[C@@H](Cc1c[nH]c2ccccc12)C(=O)N[C@H](C(=O)N[C@@H](CCCCN)C(=O)N[C@@H](CCCNC(=N)N)C(=O)N[C@@H](CCCCN)C(=O)N[C@@H](CCCNC(=N)N)C(=O)N[C@@H](CCC(N)=O)C(=O)N[C@@H](CCC(N)=O)C(=O)O)[C@@H](C)CC [Mpep, Val-Leu-Thr-Thr-Gly-Leu-Pro-Ala-Leu-Ile-Ser-Trp-Ile-Lys-Arg-Lys-Arg-Gln-Gln]
[1]
  cytotoxic effect in M2 macrophages (in words): low cytotoxicity

## CC[C@H](C)[C@H](NC(=O)CN)C(=O)NCC(=O)N[C@@H](C)C(=O)N[C@H](C(=O)N[C@@H](CC(C)C)C(=O)N[C@@H](CCCCN)C(=O)N[C@H](C(=O)N[C@@H](CC(C)C)C(=O)N[C@H](C(=O)N[C@H](C(=O)NCC(=O)N[C@@H](CC(C)C)C(=O)N1CCC[C@H]1C(=O)N[C@@H](C)C(=O)N[C@@H](CC(C)C)C(=O)N[C@H](C(=O)N[C@@H](CO)C(=O)N[C@@H](Cc1c[nH]c2ccccc12)C(=O)N[C@H](C(=O)N[C@@H](CCCCN)C(=O)N[C@@H](CCCNC(=N)N)C(=O)N[C@@H](CCCCN)C(=O)N[C@@H](CCCNC(=N)N)C(=O)N[C@@H](CCC(N)=O)C(=O)N[C@@H](CCC(N)=O)C(N)=O)[C@@H](C)CC)[C@@H](C)CC)[C@@H](C)O)[C@@H](C)O)C(C)C)C(C)C [TAMpep, reference compound]
M2 macrophages
  affinity in M2 macrophages by immunofluorescence microscopy: high affinity
[2]; FITC-conjugated peptides, THP-1-derived M0, M1, M2, FACS
  affinity in M2 macrophages compared to M0 and M1 macrophages: significantly more high affinity
TRAMP-C2 cells
  body weight of mice: did not significantly change

## CC[C@H](C)[C@H](NC(=O)CNC(C)=O)C(=O)NCC(=O)N[C@@H](C)C(=O)N[C@H](C(=O)N[C@@H](CC(C)C)C(=O)N[C@@H](CCCCN)C(=O)N[C@H](C(=O)N[C@@H](CC(C)C)C(=O)N[C@H](C(=O)N[C@H](C(=O)NCC(=O)N[C@@H](CC(C)C)C(=O)N1CCC[C@H]1C(=O)N[C@@H](C)C(=O)N[C@@H](CC(C)C)C(=O)N[C@H](C(=O)N[C@@H](CO)C(=O)N[C@@H](Cc1c[nH]c2ccccc12)C(=O)N[C@H](C(=O)N[C@@H](CCCCN)C(=O)N[C@@H](CCCNC(=N)N)C(=O)N[C@@H](CCCCN)C(=O)N[C@@H](CCCNC(=N)N)C(=O)N[C@@H](CCC(N)=O)C(=O)N[C@@H](CCC(N)=O)C(=O)NCC(=O)NCC(=O)NCC(=O)NCC(=O)N[C@@H](CO)C(=O)N[C@H](CCCCN)C(=O)N[C@H](CC(C)C)C(=O)N[C@H](C)C(=O)N[C@H](CCCCN)C(=O)N[C@H](CC(C)C)C(=O)N[C@H](C)C(=O)N[C@H](CCCCN)C(=O)N[C@H](CCCCN)C(=O)N[C@H](CC(C)C)C(=O)N[C@H](C)C(=O)N[C@H](CCCCN)C(=O)N[C@H](CC(C)C)C(=O)N[C@H](C)C(=O)N[C@H](CCCCN)C(=O)O)[C@@H](C)CC)[C@@H](C)CC)[C@@H](C)O)[C@@H](C)O)C(C)C)C(C)C [TAMpepK]
[3]
  body weight of mice: not significantly changed
[4]
  IC50: 3.58 µM
[5]
  IC50: 1.05 µM
TRAMP-C2 cells
  body weight of mice: did not significantly change
Mouse RBC
  IC50: 1.12 µM

## CC(=O)N[C@H](CCCCN)C(=O)N[C@H](CC(C)C)C(=O)N[C@H](C)C(=O)N[C@H](CCCCN)C(=O)N[C@H](CC(C)C)C(=O)N[C@H](C)C(=O)N[C@H](CCCCN)C(=O)N[C@H](CCCCN)C(=O)N[C@H](CC(C)C)C(=O)N[C@H](C)C(=O)N[C@H](CCCCN)C(=O)N[C@H](CC(C)C)C(=O)N[C@H](C)C(=O)N[C@H](CCCCN)C(=O)O [dKLA, d-Lys-d-Leu-d-Ala-d-Lys-d-Leu-d-Ala-d-Lys-d-Lys-d-Leu-d-Ala-d-Lys-d-Leu-d-Ala-d-Lys, reference compound]
TRAMP-C2 cells
  body weight of mice: did not significantly change

## A18: the eleventh S (serine) of Mpep is substituted with alanine (SEQ ID NO:21) (Ac-VLTTGLPALIAWIKRKRQQ)
[2]; alanine-substituted library of Mpep, FITC-conjugated, FACS
  affinity of alanine-substituted Mpep peptides in M2 macrophages: increased affinity
